Assay results taken from PubChem BioAssay (NCI).
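Compound exposure: 48 hours, 5 concentrations, 96-well plates. TGI: total growth inhibition.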

Key:
Experiment in all cases: NCI tumour cell line growth inhibition, 48 h
786-0 renal = system: 786-0 renal
A498 renal = system: A498 renal
A549 NSCLC = system: A549 NSCLC
ACHN renal = system: ACHN renal
BT-549 breast = system: BT-549 breast
CAKI-1 renal = system: CAKI-1 renal
CCRF-CEM leukemia = system: CCRF-CEM leukemia
COLO 205 colon = system: COLO 205 colon
DU-145 prostate = system: DU-145 prostate
EKVX NSCLC = system: EKVX NSCLC
HCC-2998 colon = system: HCC-2998 colon
HCT-116 colon = system: HCT-116 colon
HCT-15 colon = system: HCT-15 colon
HL-60(TB) leukemia = system: HL-60(TB) leukemia
HOP-62 NSCLC = system: HOP-62 NSCLC
HOP-92 NSCLC = system: HOP-92 NSCLC
HS 578T breast = system: HS 578T breast
HT29 colon = system: HT29 colon
IGROV1 ovarian = system: IGROV1 ovarian
K-562 leukemia = system: K-562 leukemia
KM12 colon = system: KM12 colon
LOX IMVI melanoma = system: LOX IMVI melanoma
M14 melanoma = system: M14 melanoma
MALME-3M melanoma = system: MALME-3M melanoma
MCF7 breast = system: MCF7 breast
MDA-MB-231 breast = system: MDA-MB-231 breast
MDA-MB-435 = system: MDA-MB-435
MDA-N = system: MDA-N
MOLT-4 leukemia = system: MOLT-4 leukemia
NCI-H226 lung = system: NCI-H226 lung
NCI-H23 lung = system: NCI-H23 lung
NCI-H460 lung = system: NCI-H460 lung
NCI-H522 lung = system: NCI-H522 lung
NCI/ADR-RES ovarian = system: NCI/ADR-RES ovarian
OVCAR-3 ovarian = system: OVCAR-3 ovarian
OVCAR-4 ovarian = system: OVCAR-4 ovarian
OVCAR-5 ovarian = system: OVCAR-5 ovarian
OVCAR-8 ovarian = system: OVCAR-8 ovarian
PC-3 prostate = system: PC-3 prostate
RPMI-8226 leukemia = system: RPMI-8226 leukemia
RXF 393 renal = system: RXF 393 renal
SF-268 CNS = system: SF-268 CNS
SF-295 CNS = system: SF-295 CNS
SF-539 CNS = system: SF-539 CNS
SK-MEL-2 melanoma = system: SK-MEL-2 melanoma
SK-MEL-28 melanoma = system: SK-MEL-28 melanoma
SK-MEL-5 melanoma = system: SK-MEL-5 melanoma
SK-OV-3 ovarian = system: SK-OV-3 ovarian
SN12C renal = system: SN12C renal
SNB-19 CNS = system: SNB-19 CNS
SNB-75 CNS = system: SNB-75 CNS
SR leukemia = system: SR leukemia
SW-620 colon = system: SW-620 colon
T-47D breast = system: T-47D breast
TK-10 renal = system: TK-10 renal
U251 CNS = system: U251 CNS
UACC-257 melanoma = system: UACC-257 melanoma
UACC-62 melanoma = system: UACC-62 melanoma
UO-31 renal = system: UO-31 renal

Q: How did the TGI (786-0 renal) turn out when `NCCSCCC(=O)O` was run?
A: > 100 µM

Q: What about the TGI (A498 renal) of the same compound?
A: 99.5 µM

Q: What about the TGI (A549 NSCLC) of the same compound?
A: > 100 µM

Q: And the TGI (ACHN renal)?
A: > 56.1 µM

Q: What about the TGI (BT-549 breast) of the same compound?
A: > 100 µM

Q: What about the TGI (CAKI-1 renal) of the same compound?
A: > 100 µM

Q: What about the TGI (CCRF-CEM leukemia) of the same compound?
A: > 100 µM

Q: What about the TGI (COLO 205 colon) of the same compound?
A: > 74.3 µM

Q: What about the TGI (DU-145 prostate) of the same compound?
A: > 100 µM

Q: And the TGI (EKVX NSCLC)?
A: > 100 µM

Q: What about the TGI (HCC-2998 colon) of the same compound?
A: 98.4 µM

Q: And the TGI (HCT-116 colon)?
A: > 100 µM

Q: And the TGI (HCT-15 colon)?
A: > 100 µM

Q: What about the TGI (HL-60(TB) leukemia) of the same compound?
A: > 100 µM

Q: And the TGI (HOP-62 NSCLC)?
A: > 100 µM

Q: And the TGI (HOP-92 NSCLC)?
A: > 100 µM

Q: And the TGI (HS 578T breast)?
A: > 100 µM

Q: And the TGI (HT29 colon)?
A: > 100 µM

Q: What about the TGI (IGROV1 ovarian) of the same compound?
A: > 100 µM

Q: What about the TGI (K-562 leukemia) of the same compound?
A: > 100 µM

Q: What about the TGI (KM12 colon) of the same compound?
A: > 100 µM

Q: What about the TGI (LOX IMVI melanoma) of the same compound?
A: > 93.7 µM

Q: And the TGI (M14 melanoma)?
A: > 100 µM

Q: And the TGI (MALME-3M melanoma)?
A: > 100 µM

Q: And the TGI (MCF7 breast)?
A: > 100 µM

Q: And the TGI (MDA-MB-231 breast)?
A: > 100 µM

Q: And the TGI (MDA-MB-435)?
A: > 100 µM

Q: What about the TGI (MDA-N) of the same compound?
A: > 100 µM

Q: And the TGI (MOLT-4 leukemia)?
A: > 100 µM

Q: And the TGI (NCI-H226 lung)?
A: > 100 µM

Q: What about the TGI (NCI-H23 lung) of the same compound?
A: > 62.7 µM

Q: What about the TGI (NCI-H460 lung) of the same compound?
A: > 37.9 µM

Q: What about the TGI (NCI-H522 lung) of the same compound?
A: > 100 µM

Q: What about the TGI (NCI/ADR-RES ovarian) of the same compound?
A: > 100 µM

Q: What about the TGI (OVCAR-3 ovarian) of the same compound?
A: > 100 µM

Q: And the TGI (OVCAR-4 ovarian)?
A: > 100 µM

Q: What about the TGI (OVCAR-5 ovarian) of the same compound?
A: > 100 µM

Q: What about the TGI (OVCAR-8 ovarian) of the same compound?
A: > 100 µM

Q: What about the TGI (PC-3 prostate) of the same compound?
A: > 100 µM

Q: And the TGI (RPMI-8226 leukemia)?
A: > 92.3 µM

Q: What about the TGI (RXF 393 renal) of the same compound?
A: > 100 µM

Q: What about the TGI (SF-268 CNS) of the same compound?
A: > 100 µM

Q: What about the TGI (SF-295 CNS) of the same compound?
A: > 92.3 µM

Q: And the TGI (SF-539 CNS)?
A: > 100 µM

Q: And the TGI (SK-MEL-2 melanoma)?
A: > 100 µM

Q: And the TGI (SK-MEL-28 melanoma)?
A: > 71.8 µM

Q: What about the TGI (SK-MEL-5 melanoma) of the same compound?
A: > 85.3 µM

Q: What about the TGI (SK-OV-3 ovarian) of the same compound?
A: > 100 µM

Q: What about the TGI (SN12C renal) of the same compound?
A: > 100 µM

Q: And the TGI (SNB-19 CNS)?
A: > 100 µM

Q: And the TGI (SNB-75 CNS)?
A: > 92.6 µM

Q: And the TGI (SR leukemia)?
A: > 83.9 µM

Q: And the TGI (SW-620 colon)?
A: > 100 µM

Q: And the TGI (T-47D breast)?
A: > 84.2 µM

Q: What about the TGI (TK-10 renal) of the same compound?
A: > 100 µM

Q: What about the TGI (U251 CNS) of the same compound?
A: > 67.4 µM

Q: And the TGI (UACC-257 melanoma)?
A: > 100 µM

Q: What about the TGI (UACC-62 melanoma) of the same compound?
A: > 70.9 µM

Q: What about the TGI (UO-31 renal) of the same compound?
A: > 100 µM

Q: What does the source list for `O=C(O)/C=C\C(=O)Nn1c(Cc2ccc(Cl)cc2)n[nH]c1=O`?
A: TGI (786-0 renal): > 100 µM; TGI (A498 renal): > 100 µM; TGI (A549 NSCLC): > 100 µM; TGI (BT-549 breast): > 100 µM; TGI (CAKI-1 renal): > 100 µM; TGI (CCRF-CEM leukemia): > 100 µM; TGI (COLO 205 colon): > 100 µM; TGI (DU-145 prostate): > 100 µM; TGI (EKVX NSCLC): > 100 µM; TGI (HCC-2998 colon): > 100 µM; TGI (HCT-116 colon): > 100 µM; TGI (HCT-15 colon): > 100 µM; TGI (HL-60(TB) leukemia): > 100 µM; TGI (HOP-62 NSCLC): > 100 µM; TGI (HS 578T breast): > 100 µM; TGI (HT29 colon): > 100 µM; TGI (IGROV1 ovarian): > 100 µM; TGI (K-562 leukemia): > 100 µM; TGI (M14 melanoma): > 100 µM; TGI (MALME-3M melanoma): > 100 µM; TGI (MCF7 breast): > 100 µM; TGI (MDA-MB-231 breast): > 100 µM; TGI (MDA-MB-435): > 100 µM; TGI (MDA-N): > 100 µM; TGI (MOLT-4 leukemia): > 100 µM; TGI (NCI-H226 lung): > 100 µM; TGI (NCI-H23 lung): > 100 µM; TGI (NCI-H460 lung): > 100 µM; TGI (NCI-H522 lung): > 100 µM; TGI (NCI/ADR-RES ovarian): > 100 µM; TGI (OVCAR-3 ovarian): > 100 µM; TGI (OVCAR-4 ovarian): > 100 µM; TGI (OVCAR-5 ovarian): > 100 µM; TGI (OVCAR-8 ovarian): > 100 µM; TGI (PC-3 prostate): > 100 µM; TGI (RXF 393 renal): > 100 µM; TGI (SF-268 CNS): > 100 µM; TGI (SF-295 CNS): > 100 µM; TGI (SF-539 CNS): > 100 µM; TGI (SK-MEL-2 melanoma): > 100 µM; TGI (SK-MEL-5 melanoma): > 100 µM; TGI (SK-OV-3 ovarian): > 100 µM; TGI (SN12C renal): > 100 µM; TGI (SR leukemia): > 100 µM; TGI (T-47D breast): > 100 µM; TGI (TK-10 renal): > 100 µM; TGI (U251 CNS): > 100 µM; TGI (UACC-257 melanoma): > 100 µM; TGI (UACC-62 melanoma): > 100 µM
